Experimental data taken from patent US20160184279A1, “METHODS OF TREATING PAIN AND/OR ITCH WITH SMALL MOLECULE INHIBITORS TARGETING AN mTOR PATHWAY” (Transderm, Inc., priority 2014, published 2016).

Experiment: Solubility of rapamycin in solvents
Type: physicochemical
Excerpt: Formulations for topical or transdermal delivery systems which effectively administer mTOR inhibitors to treat pain can be challenging to make. One such challenge can be caused by the structures of the various mTOR inhibitors and the associated solubility and/or stability challenges that exist for many of these compounds. […] Benzyl alcohol has been identified as a solvent that can effectively solubilize rapamycin. In particular, benzyl alcohol can support 20 wt % solutions and higher of rapamycin. […] For example, formulations utilizing Span 80 and/or Tween 20 as surfactants were only able to achieve benzyl alcohol loading of 20 wt % or less.

solubility in aqueous compositions, ethanolic compositions, triglycerides, alkanes, and silicone systems: poorly solubilized
solubility in benzyl alcohol (benzyl alcohol solution): ≥ 20 wt %
Compound: CO[C@H]1C[C@@H]2CC[C@@H](C)[C@@](O)(O2)C(=O)C(=O)N2CCCC[C@H]2C(=O)O[C@H]([C@H](C)C[C@@H]2CC[C@@H](O)[C@H](OC)C2)CC(=O)[C@H](C)/C=C(\C)[C@@H](O)[C@@H](OC)C(=O)[C@H](C)C[C@H](C)/C=C/C=C/C=C/1C [rapamycin]
